Our source for the T/C values is PubChem BioAssay AID192 (DTP/NCI, 2004).

Each structure is given as a SMILES string. Several values for one entry are separate records, joined by “and”; a condition that tells them apart may be missing. Identical values can stand only once. Toxic doses and inconclusive results are not listed.

The subject of the experiment is BDF1 mice, B16 melanoma ip, median survival T/C. Put plainly: NCI In Vivo Anticancer Drug Screen. Data for tumor model B16 Melanoma (intraperitoneal) in B6D2F1 (BDF1) mice. The settings on record: endpoint: median survival time, higher = longer survival. In short, it runs like this:
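Compounds were tested in mice carrying transplantable tumors. Survival or tumor size was recorded, and each value is the treated-group measurement (T) divided by that of the vehicle-treated control group (C).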

Where [1] appears, read: dose: 25.0 mg/kg/injection, schedule: Q01DX009 (ip), vehicle: saline with Tween-80.
Setting [2] is: dose: 50.0 mg/kg/injection, schedule: Q01DX009 (ip), vehicle: saline with Tween-80.
Setting [3] is: dose: 100.0 mg/kg/injection, schedule: Q01DX009 (ip), vehicle: saline with Tween-80.
[4] abbreviates: dose: 200.0 mg/kg/injection, schedule: Q01DX009 (ip), vehicle: saline with Tween-80.
The mark [5] stands for this setting: dose: 50.0 mg/kg/injection, schedule: Q01DX009 (ip), vehicle: Klucel (hydroxypropylcellulose) (HPC).
[6] abbreviates: dose: 100.0 mg/kg/injection, schedule: Q01DX009 (ip), vehicle: Klucel (hydroxypropylcellulose) (HPC).
[7] abbreviates: dose: 12.5 mg/kg/injection, schedule: Q01DX009 (ip), vehicle: saline with Tween-80.
[8] abbreviates: dose: 25.0 mg/kg/injection, schedule: Q01DX009 (ip), vehicle: Klucel (hydroxypropylcellulose) (HPC).
[9] abbreviates: dose: 50.0 mg/kg/injection, schedule: Q01DX009 (ip), vehicle: saline.
[10] abbreviates: dose: 6.0 mg/kg/injection, schedule: Q01DX009 (ip), vehicle: Klucel (hydroxypropylcellulose) (HPC).

For `CC(O)CNCCNc1ccc(NCCNCC(C)O)c2c1C(=O)c1c(O)ccc(O)c1C2=O` (centres undefined), the T/C reads like this: (dose: 0.5 mg/kg/injection, schedule: Q01DX009 (ip), vehicle: distilled water + Tween-80) 150 % of control; (dose: 1.0 mg/kg/injection, schedule: Q01DX009 (ip), vehicle: distilled water + Tween-80) 163 % of control; (dose: 2.0 mg/kg/injection, schedule: Q01DX009 (ip), vehicle: distilled water + Tween-80) 178 % of control; (dose: 4.0 mg/kg/injection, schedule: Q01DX009 (ip), vehicle: distilled water + Tween-80) 222 % of control; (dose: 8.0 mg/kg/injection, schedule: Q01DX009 (ip), vehicle: distilled water + Tween-80) 222 % of control; (dose: 16.0 mg/kg/injection, schedule: Q01DX009 (ip), vehicle: distilled water + Tween-80) 222 % of control.

Turning to `O=c1[nH]c2ccc(Br)cc2c(=O)o1`, the T/C runs as follows: under setting [1], 91 % of control; under setting [2], 91 % of control; under setting [3], 86 % of control and 88 % of control; under setting [4], 86 % of control.

For `NC(=S)N/N=C\c1ncnc2ccccc12`, under “dose: 6.25 mg/kg/injection, schedule: Q01DX009 (ip), vehicle: Klucel (hydroxypropylcellulose) (HPC)”, the T/C is 124 % of control.

With `C1CC[N-]CC1.C1CC[N-]CC1.C1CC[N-]CC1.C1CC[N-]CC1.[Cl][Co][Cl]`, the T/C is, setting by setting: (dose: 37.5 mg/kg/injection, schedule: Q01DX009 (ip), vehicle: saline with Tween-80) 103 % of control; (dose: 75.0 mg/kg/injection, schedule: Q01DX009 (ip), vehicle: saline with Tween-80) 87 % of control.

As for `ClC(Cl)(Cl)C(N1CCN(c2ccccc2)CC1)N1CCN(c2ccccc2)CC1`, the T/C under setting [2] is 113 % of control; the T/C under setting [3] was 96 % of control; the T/C under setting [4] is 112 % of control; the T/C (dose: 400.0 mg/kg/injection, schedule: Q01DX009 (ip), vehicle: saline with Tween-80) was 91 % of control.

Regarding `CC(=O)Oc1cc(C)c(OC(C)=O)c2ccccc12`, the T/C under setting [5] is 94 % of control and the T/C under setting [6] was 88 % of control.

For the compound `NC(=O)c1ccc(-c2c3ccccc3cc3c2ccc2ccccc23)cc1`, the T/C under setting [2] is 101 % of control and the T/C under setting [3] was 96 % of control.

Regarding `COc1ccc(NC(=O)Oc2ccccc2-c2ccccc2)cc1`, the T/C (dose: 8.0 mg/kg/injection, schedule: Q01DX009 (ip), vehicle: saline with Tween-80) is 100 % of control; the T/C (dose: 12.0 mg/kg/injection, schedule: Q01DX009 (ip), vehicle: saline with Tween-80) was 95 % of control; the T/C under setting [7] is 223 % of control; the T/C (dose: 18.0 mg/kg/injection, schedule: Q01DX009 (ip), vehicle: saline with Tween-80) is 95 % of control; the T/C under setting [1] was 199 % of control; the T/C under setting [2] is 213 % of control.

Regarding `O=C(c1ccccc1Cl)N(Cc1ccccc1)c1ccccc1`, the T/C under setting [8] was 93 % of control; the T/C under setting [5] was 93 % of control; the T/C under setting [6] was 90 % of control and 100 % of control.

With `Brc1cnc(OCc2ccccc2)nc1OCc1ccccc1`, the T/C is 118 % of control under setting [6]; 110 % of control (dose: 200.0 mg/kg/injection, schedule: Q01DX009 (ip), vehicle: Klucel (hydroxypropylcellulose) (HPC)); 107 % of control (dose: 400.0 mg/kg/injection, schedule: Q01DX009 (ip), vehicle: Klucel (hydroxypropylcellulose) (HPC)).

Regarding `CSc1ncc(C#N)c(N)n1`, the T/C was 107 % of control under setting [2], 99 % of control under setting [3] and 97 % of control under setting [4].

For `Cn1c(C(Cl)Cl)nc2ccccc2c1=O`, the T/C was 110 % of control under setting [7], 105 % of control under setting [1] and 105 % of control under setting [2].

As for `CCN(CC)CCCC(C)Nc1c2ccc(C)cc2nc2ccc(OC)cc12` (centres undefined), the T/C is, setting by setting: (dose: 6.25 mg/kg/injection, schedule: Q01DX009 (ip), vehicle: saline) 89 % of control; (dose: 12.5 mg/kg/injection, schedule: Q01DX009 (ip), vehicle: saline) 99 % of control and 114 % of control; (dose: 25.0 mg/kg/injection, schedule: Q01DX009 (ip), vehicle: saline) 124 % of control; under setting [9], 122 % of control and 123 % of control.

`C=CCNc1nc2c(s1)CCc1cc(OC)c(OC)cc1-2`: the T/C was 104 % of control under setting [7]; 106 % of control under setting [1]; 115 % of control under setting [2]; 104 % of control under setting [3]; 104 % of control under setting [4].

Consider `O=CN(c1ccccc1)c1ccccc1`, for which the T/C reads like this: (dose: 50.0 mg/kg/injection, schedule: Q01DX009 (ip), vehicle: other) 100 % of control; (dose: 100.0 mg/kg/injection, schedule: Q01DX009 (ip), vehicle: other) 100 % of control; (dose: 200.0 mg/kg/injection, schedule: Q01DX009 (ip), vehicle: other) 105 % of control; (dose: 400.0 mg/kg/injection, schedule: Q01DX009 (ip), vehicle: other) 97 % of control.

For `S=P(NCCNP(=S)(N1CC1)N1CC1)(N1CC1)N1CC1`, the T/C (dose: 12.5 mg/kg/injection, schedule: Q01DX009 (ip), vehicle: Klucel (hydroxypropylcellulose) (HPC)) is 118 % of control and the T/C under setting [8] was 124 % of control.

On to `O=C(O)c1ccc(Nc2c3ccccc3nc3ccccc23)cc1`, for which the T/C (dose: 8.0 mg/kg/injection, schedule: Q01DX009 (ip), vehicle: other) was 103 % of control; the T/C (dose: 12.0 mg/kg/injection, schedule: Q01DX009 (ip), vehicle: other) is 117 % of control; the T/C (dose: 13.0 mg/kg/injection, schedule: Q01DX009 (ip), vehicle: saline with Tween-80) was 119 % of control; the T/C (dose: 28.0 mg/kg/injection, schedule: Q01DX009 (ip), vehicle: other) was 117 % of control; the T/C (dose: 42.0 mg/kg/injection, schedule: Q01DX009 (ip), vehicle: other) was 160 % of control; the T/C (dose: 44.0 mg/kg/injection, schedule: Q01DX009 (ip), vehicle: Klucel (hydroxypropylcellulose) (HPC)) is 169 % of control. In addition, under “dose: 44.0 mg/kg/injection, schedule: Q01DX009 (ip), vehicle: saline with Tween-80”, the T/C was 156 % of control.

Turning to `CCOC(=O)C(C#N)N=O` (centres undefined), the T/C reads like this: under setting [9], 111 % of control; (dose: 50.0 mg/kg/injection, schedule: Q04DX003 (ip), vehicle: saline) 106 % of control; (dose: 100.0 mg/kg/injection, schedule: Q04DX003 (ip), vehicle: saline) 113 % of control.

Regarding `C=C1CC(OC(=O)C(C)(O)CCl)C2C(=C)C(=O)OC2C2C1CC(O)C2(O)CCl` (centres undefined), the T/C reads like this: (dose: 3.0 mg/kg/injection, schedule: Q01DX009 (ip), vehicle: Klucel (hydroxypropylcellulose) (HPC)) 104 % of control; under setting [10], 101 % of control; (dose: 12.0 mg/kg/injection, schedule: Q01DX009 (ip), vehicle: Klucel (hydroxypropylcellulose) (HPC)) 101 % of control; (dose: 24.0 mg/kg/injection, schedule: Q01DX009 (ip), vehicle: Klucel (hydroxypropylcellulose) (HPC)) 93 % of control.

For the compound `Cc1ccc([I+]c2ccc(C)cc2C)c(C)c1`, the T/C (dose: 0.18 mg/kg/injection, schedule: Q01DX009 (ip), vehicle: Klucel (hydroxypropylcellulose) (HPC)) is 114 % of control; the T/C (dose: 0.37 mg/kg/injection, schedule: Q01DX009 (ip), vehicle: Klucel (hydroxypropylcellulose) (HPC)) was 92 % of control; the T/C (dose: 0.75 mg/kg/injection, schedule: Q01DX009 (ip), vehicle: Klucel (hydroxypropylcellulose) (HPC)) is 87 % of control; the T/C under setting [10] is 90 % of control.

Consider `Brc1ccc2c(c1)-c1ccccc1C1=NCCN12`, for which the T/C by setting is: (dose: 2.5 mg/kg/injection, schedule: Q01DX009 (ip), vehicle: Klucel (hydroxypropylcellulose) (HPC)) 118 % of control; (dose: 5.0 mg/kg/injection, schedule: Q01DX009 (ip), vehicle: Klucel (hydroxypropylcellulose) (HPC)) 103 % of control; (dose: 5.0 mg/kg/injection, schedule: Q04DX003 (ip), vehicle: saline with Tween-80) 100 % of control; (dose: 10.0 mg/kg/injection, schedule: Q01DX009 (ip), vehicle: Klucel (hydroxypropylcellulose) (HPC)) 93 % of control; (dose: 10.0 mg/kg/injection, schedule: Q04DX003 (ip), vehicle: saline with Tween-80) 102 % of control; (dose: 10.0 mg/kg/injection, schedule: Q04DX003 (ip), vehicle: saline) 105 % of control. Besides, the T/C (dose: 20.0 mg/kg/injection, schedule: Q04DX003 (ip), vehicle: saline with Tween-80) is 100 % of control.
